The assay relates to biosynthesis of cholesterol. Briefly: CSI screen (cholesterol synthesis inhibition) as disclosed in U.S. Pat. No. 4,681,893. Format: biochemical. From the text: The compounds according to present invention and especially according to the compound of the formula I inhibit the biosynthesis of cholesterol as found in the CSI screen that is disclosed in U.S. Pat. No. 4,681,893 which is now also incorporated by reference therefor. The CSI data of the compound I, its enantiomer the compound II and the racemate of these two compounds are as follows: […]

SMILES strings stand for the structures. pIC50: −log10 of the molar value.

As usually defined, the pIC50 is the IC50 on a negative log10 scale, so that one unit is a factor of ten. Read a high pIC50 as a low IC50. `CC(C)c1c(C(=O)Nc2ccccc2)c(-c2ccccc2)c(-c2ccc(F)cc2)n1CC[C@@H](O)C[C@@H](O)CC(=O)O` (single isomer, unassigned) [[R—(R*R*)] isomer, [R-(R*,R*)]-2-(4-fluorophenyl)-β,δ-dihydroxy-5-(1-methylethyl)-3-phenyl-4-[(phenylamino)carbonyl]-1H-pyrrole-1-heptanoic acid] gave a negative logarithm of the IC50 (pIC50) of 8.36. As to `CC(C)c1c(C(=O)Nc2ccccc2)c(-c2ccccc2)c(-c2ccc(F)cc2)n1CCC(O)CC(O)CC(=O)O` (single isomer, unassigned) [[S—(R*R*)] isomer], the pIC50 is 6.36.

The values are drawn from USRE40667E1, “[R-(R*R*)]-2-(4-fluorophenyl)-β,δ-dihydroxy-5-(1-methylethyl-3-phenyl-4-[(phenylamino)carbonyl]-1H-pyrrole-1-heptanoic acid, its lactone form and salts thereof” (Warner-Lambert Company LLC, priority 1989, dated 2009).
